Earlier results, collected in patent US20040157836A1, “Sulfonamides having antiangiogenic and anticancer activity” (priority 2002, published 2004).

Target: type 2-methionine aminopeptidase (MetAP-2) (Homo sapiens, UniProt P50579)
Settings: reported in Proc. Natl. Acad. Sci. USA 94: 6099-6103 (1997) and Chemistry and Biology, 4(6): 461-471 (1997)

type 2-methionine aminopeptidase (MetAP-2), sequence (P50579 whole entry, species assumed): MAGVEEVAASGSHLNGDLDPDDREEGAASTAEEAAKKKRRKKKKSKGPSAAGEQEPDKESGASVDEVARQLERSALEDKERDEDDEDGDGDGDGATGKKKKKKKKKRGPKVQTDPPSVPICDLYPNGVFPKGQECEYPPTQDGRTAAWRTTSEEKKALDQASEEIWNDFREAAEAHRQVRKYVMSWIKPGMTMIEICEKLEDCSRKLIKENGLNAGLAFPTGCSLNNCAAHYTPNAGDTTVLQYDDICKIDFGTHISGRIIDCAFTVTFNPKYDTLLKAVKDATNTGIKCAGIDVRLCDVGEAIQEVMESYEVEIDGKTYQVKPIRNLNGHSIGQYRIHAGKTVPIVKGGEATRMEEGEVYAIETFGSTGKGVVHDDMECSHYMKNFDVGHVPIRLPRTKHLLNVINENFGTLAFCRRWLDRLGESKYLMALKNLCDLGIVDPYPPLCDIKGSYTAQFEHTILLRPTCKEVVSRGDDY

SMILES: CO[C@@H]1[C@H](OC(=O)NC(=O)CCl)CC[C@]2(CO2)[C@H]1[C@@]1(C)O[C@@H]1CC=C(C)C [AGM-1470]
- bind to type 2-methionine aminopeptidase (MetAP-2): bind
